Results as given in patent US5631247A, “Compounds and compositions with nitrogen-containing non-basic side chains” (Eli Lilly and Company, priority 1996, dated 1997).

Columns and labels:
Type in all cases: in vivo, female Sprague Dawley rats
serum cholesterol = experiment: Serum cholesterol in ovariectomized rats (post-menopausal rat model, four day dosing); details: OVX rats, oral, 4 days; EE2 at 0.1 mg/Kg/day
Experimental: (§1) In the examples illustrating the methods, a post-menopausal model was used in which effects of different treatments upon various biological parameters were determined, including serum cholesterol concentration, uterine weight, eosinophil peroxidase activity, MCF-7 cell proliferation, and bone density.
(§2) Animals were dosed daily for 4 days. […] A blood sample was collected by cardiac puncture.
Blood samples were allowed to clot at room temperature for 2 hours, and serum was obtained following centrifugation for 10 minutes at 3000 rpm. Serum cholesterol was determined using a Boshringer Mannheim Diagnostics high performance cholesterol assay. Briefly the cholesterol was oxidized to cholest-4-en-3-one and hydrogen peroxide. The hydrogen peroxide was then reacted with phenol and 4-aminophenazone in the presence of peroxidase to produce a p-quinone imine dye, which was read spectrophotemetrically at 500 nm. Cholesterol concentration was then calculated against a standard curve. The entire assay was automated using a Biomek Automated Workstation.
(§3) Data presented in Table 1 below show comparative results among control ovariectomized rats, rats treated with EE2, and rats treated with certain compounds of the present invention. […] This uterine response to estrogen is well recognized in the art.
(§4) The data presented in Table 1 reflect the response of 5 to 6 rats per treatment.

uterus = experiment: Wet uterine weight in ovariectomized rats (four day dosing)
Experimental: as §1, §2, §3, §4

eosinophil peroxidase = experiment: Uterine eosinophil peroxidase (EPO) assay in ovariectomized rats (four day dosing); parameters: Uterine EPO (Vmax): unit not given here; details: oral, OVX rats
Experimental: as §1, §2, §4

tibia = experiment: Bone density assay (35 day dosing, tibia, single photon absorptiometry); details: OVX rats, oral in 20% hydroxypropyl β-cyclodextrin, daily for 35 days
Experimental: Following the General Preparation procedure described above, the rats were treated daily for 35 days (6 rats per treatment group) and sacrificed by decapitation on the 36th day. The 35 day time period was sufficient to allow maximal effect on bone density, measured as described herein. At the time of sacrifice, the uteri were removed, dissected free of extraneous tissue, and the fluid contents were expelled before determination of wet weight in order to confirm estrogen deficiency associated with complete ovariectomy. […] The uteri were then placed in 10% neutral buffered formalin to allow for subsequent histological analysis. The right tibias were excised and scanned at the distal metaphysis 1 mm from the patellar groove with single photon absorptiometry. Results of the densitometer measurements represent a calculation of bone density as a function of the bone mineral content and bone width. In accordance with the procedures outlined above, compounds of the present invention and EE2 in 20% hydroxypropyl β-cyclodextrin were orally administered to test animals.

C#C[C@]1(O)CC[C@H]2[C@@H]3CCc4cc(O)ccc4[C@H]3CC[C@@]21C [ethynyl estradiol, 17α-Ethynyl estradiol, reference compound]
effect on serum cholesterol (in words) (serum cholesterol): caused a decrease in serum cholesterol
effect on uterine weight (in words) (uterus; OVX rats, oral, 4 days, EE2 at 0.1 mg/Kg/day): substantially greater than the uterine weight of ovariectomized test animals
change in vivo at 0.1 mg/kg (uterus; Rattus norvegicus, po, 96 h, 0.1 mg/kg, daily for 4 days, increase vs OVX control, read-out: Uterine Weight (% inc. OVX)): 235%
Uterine EPO (Vmax) (eosinophil peroxidase; 0.1 mg/kg, daily for 4 days): 120.0
eosinophil infiltration into the uterus (in words) (eosinophil peroxidase; 4 days, by eosinophil peroxidase activity): caused a substantial, expected increase in eosinophil infiltration
effect on bone loss / tibia density (in words) (tibia): prevented this loss
